Assay results: PubChem BioAssay (NCI)
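Values below derive from 48-hour exposures of cells grown in 96-well plates, with endpoints linearly interpolated between the two concentrations bracketing the appropriate inhibition level. The concentration for 50% growth inhibition is given as GI50. Definition used: TGI = concentration required for complete inhibition of growth.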

Legend:
Assay in all cases: NCI anticancer screen, dose series, 48 h
[1] = system: SNB-19 CNS
[2] = system: OVCAR-3 ovarian
[3] = system: SNB-75 CNS
[4] = system: HCC-2998 colon
[5] = system: HT29 colon
[6] = system: SN12C renal
[7] = system: NCI-H226 lung
[8] = system: OVCAR-5 ovarian
[9] = system: SK-MEL-5 melanoma
[10] = system: MOLT-4 leukemia

| SMILES | TGI [1] [µM] | TGI [2] [µM] | TGI [3] [µM] | TGI [4] [µM] | TGI [5] [µM] | TGI [6] [µM] | TGI [7] [µM] | TGI [8] [µM] | GI50 [1] [µM] | GI50 [2] [µM] | GI50 [3] [µM] | GI50 [4] [µM] | GI50 [5] [µM] | GI50 [6] [µM] | GI50 [7] [µM] | GI50 [9] [µM] | TGI [9] [µM] | GI50 [8] [µM] | TGI [10] [µM] | GI50 [10] [µM] |
| --- | --- | --- | --- | --- | --- | --- | --- | --- | --- | --- | --- | --- | --- | --- | --- | --- | --- | --- | --- | --- |
| CCOC(=O)C(=O)Nc1c(C)cccc1C | > 100 | > 100 | > 100 | > 100 | > 100 | > 100 | > 100 | > 100 | – | – | – | – | – | – | – | – | – | – | – | – |
| CC(=O)OCC1OC(n2ccc(=O)[nH]c2=O)C(OC(C)=O)C1OC(C)=O (configuration not stated) | > 100 | > 100 | > 100 | > 100 | > 100 | > 100 | > 100 | > 100 | > 100 | > 100 | > 100 | > 100 | > 100 | > 100 | > 100 | > 100 | > 100 | > 100 | – | – |
| CCc1cc(O)c(Cl)c(C)c1Cl | 95.6 | 33.5 | 34.1 | 32.7 | 39.1 | 29.5 | – | 52.2 | – | – | – | – | – | – | – | – | 33.3 | – | – | – |
| CO/N=C(\C)c1ccc(Nc2cc(-c3ccccc3)nc3c(O)cccc23)cc1 | – | 32.4 | 46.1 | 37.1 | 49.5 | 30.6 | 78.4 | 33.4 | – | 16.4 | 22.1 | 22.1 | 21.9 | 16 | 22.4 | 23.9 | 91.4 | 18.7 | – | – |
| O=C(CSC(=S)N1CCOCC1)Nc1nc2c(s1)CCCC2 | – | > 100 | > 100 | 61.2 | > 100 | > 100 | > 100 | > 100 | – | – | – | – | – | – | – | – | > 100 | – | > 100 | – |
| CN(C)c1ccc2cc(-c3ccccc3F)c(N)nc2c1 | 19.2 | 7.62 | 9.69 | 17.6 | 11 | 19.2 | 20.3 | 17.8 | 3.1 | 0.922 | 1.86 | 3.18 | 0.529 | 4.55 | 3.61 | 1.54 | 6.31 | 3.55 | – | – |
| NNC(=O)CCC(=O)NC1C2CC3CC(C2)CC1C3 (configuration not stated) | > 100 | – | > 100 | > 100 | > 100 | > 100 | > 100 | > 100 | – | – | – | – | – | – | – | – | > 100 | – | > 100 | – |
| COc1cc(/C=C/C(=O)c2sc(Nc3ccccc3)nc2C)ccc1O | > 100 | > 100 | 84.8 | > 100 | > 100 | > 100 | – | > 100 | – | – | – | – | – | – | – | – | > 100 | – | > 100 | – |
| CCCCCCCCCc1cc(=O)c2ccc(O)cc2o1 | > 100 | > 100 | 56.4 | – | > 100 | > 100 | > 100 | > 100 | – | – | – | – | – | – | – | – | > 100 | – | > 100 | – |
| Cc1ccc(C(O)c2cnc(C)n2Cc2ccccc2)cc1 (configuration not stated) | > 100 | > 100 | > 100 | > 100 | > 100 | > 100 | > 100 | > 100 | – | – | – | – | – | – | – | – | > 100 | – | – | – |
| O=C(O)c1cc(=O)c2[nH]c3ccccc3c2s1 | > 100 | > 100 | > 100 | > 100 | – | > 100 | – | > 100 | – | – | – | – | – | – | – | – | > 100 | – | > 100 | – |
| CC(C)NC(=O)OCCS(=O)c1c(Cl)c(Cl)nn1C (configuration not stated) | > 100 | > 100 | > 100 | – | > 100 | > 100 | > 100 | > 100 | – | – | – | – | – | – | – | – | > 100 | – | > 100 | – |
| CN(C)CCOc1ccc2c(c1)C/C(=C/c1ncc([N+](=O)[O-])n1C)C2=O | 15.3 | 6.27 | 7.54 | – | 4.92 | 9.78 | 4.52 | 14.8 | – | – | – | – | – | – | – | – | 3.49 | – | > 22.6 | – |
| CCCCn1cnc2c(SC)ncnc21 | > 100 | > 100 | > 100 | > 100 | > 100 | > 100 | – | > 100 | – | – | – | – | – | – | – | – | > 100 | – | > 100 | – |
| NC(C(=O)[O-])C(=O)[O-].NC1CCCCC1N.[Pt+4] | > 100 | 24 | > 100 | – | > 100 | > 100 | – | > 100 | 6.54 | 2.45 | > 100 | – | 2.65 | 4.5 | – | 1.84 | 12 | 2.64 | > 100 | 6.42 |
| CC(=O)O[C@@H]1CC2C(C)(C)CCCC2(C)C2=C1C(=O)C(C(C)C)=CC2=O (some centres not stated) | > 100 | 3.36 | – | 1.62 | 5.54 | 4.89 | 2.09 | 5.32 | 0.87 | 1.51 | – | 0.405 | 2.03 | 1.28 | 0.518 | 0.581 | 1.84 | 2.26 | > 100 | 1.13 |
| COc1cccc(C2c3cc4c(cc3OC(O)(CO)C2C(=O)O)OCO4)c1 (configuration not stated) (tested in a mixture with another compound) | – | > 100 | 54 | > 100 | > 100 | > 100 | > 100 | > 100 | – | – | – | – | – | – | – | – | > 100 | – | > 100 | – |
| c1cnc2[nH]cc(-c3csc(-c4cn(CCCCN5CCOCC5)c5ccccc45)n3)c2c1 | 3.49 | 3.17 | 2.54 | 3.26 | – | 10.8 | 8.23 | 3.45 | 1.76 | 1.64 | 1.19 | 1.74 | – | 2.98 | 2.29 | 1.73 | 3.16 | 1.82 | 3.67 | 1.82 |
| Nc1nc2c(c(=O)[nH]1)CN(c1ccc(S(N)(=O)=O)cc1)CN2 | > 100 | > 100 | – | – | > 100 | > 100 | > 100 | > 100 | – | – | – | – | – | – | – | – | > 100 | – | > 100 | – |
